Target: T1, Prothrombin (Homo sapiens, UniProt P00734)
Assay: Inhibition of thrombin (unknown origin)
Conditions: not given

IC50 [nM] | SMILES
26.3 | CCn1c(CNc2ccc(C(=N)N)cc2)nc2cc(C(=O)N(CCC(=O)O)c3cccc(C(F)(F)F)c3)ccc21
19.1 | CCn1c(CNc2ccc(C(=N)N)cc2F)nc2cc(C(=O)N(CCC(=O)O)c3cc(C)ccn3)ccc21
8.32 | Cn1c(CNc2ccc(C(=N)N)cc2)nc2cc(C(=O)N(CCC(=O)O)c3ccc(F)c(Cl)c3)ccc21
17.4 | CC(C)n1c(CNc2ccc(C(=N)N)cc2F)nc2cc(C(=O)N(CCC(=O)O)c3ccc(F)c(Cl)c3)ccc21
36.3 | CCCCn1c(CNc2ccc(C(=N)N)cc2F)nc2cc(C(=O)N(CCC(=O)O)c3ccc(F)c(Cl)c3)ccc21
174 | CCCCCn1c(CNc2ccc(C(=N)N)cc2F)nc2cc(C(=O)N(CCC(=O)O)c3ccc(F)c(Cl)c3)ccc21
4.27 | CCn1c(CNc2ccc(C(=N)N)cc2)nc2cc(C(=O)N(CCC(=O)O)c3ccc(F)cc3)ccc21
6.17 | CCn1c(CNc2ccc(C(=N)N)cc2)nc2cc(C(=O)N(CCC(=O)O)c3ccccc3C(F)(F)F)ccc21
39.8 | CCCCn1c(CNc2ccc(C(=N)N)cc2)nc2cc(C(=O)N(CCC(=O)O)c3ccc(F)c(Cl)c3)ccc21
11 | CCCn1c(CNc2ccc(C(=N)N)cc2)nc2cc(C(=O)N(CCC(=O)O)c3ccc(F)c(Cl)c3)ccc21
2.04 | CCn1c(CNc2ccc(C(=N)N)cc2F)nc2cc(C(=O)N(CCC(=O)O)c3ccc(F)c(Cl)c3)ccc21
8.91 | CCn1c(CNc2ccc(C(=N)N)cc2)nc2cc(C(=O)N(CCC(=O)O)c3ccc(F)c(Cl)c3)ccc21
7.94 | CCn1c(CNc2ccc(C(=N)N)cc2)nc2cc(C(=O)N(CCC(=O)O)c3cc(F)cc(F)c3)ccc21
28.2 | CCCn1c(CNc2ccc(C(=N)N)cc2F)nc2cc(C(=O)N(CCC(=O)O)c3ccc(F)c(Cl)c3)ccc21
12.3 | Cn1c(CNc2ccc(C(=N)N)cc2)nc2cc(C(=O)N(CCC(=O)O)c3cccc(C(F)(F)F)c3)ccc21
7.41 | CCn1c(CNc2ccc(C(=N)N)cc2)nc2cc(C(=O)N(CCC(=O)O)c3cccc(F)c3)ccc21
11.5 | Cn1c(CNc2ccc(C(=N)N)cc2F)nc2cc(C(=O)N(CCC(=O)O)c3ccc(F)c(Cl)c3)ccc21
27.5 | N=C(N)c1ccc(NCc2nc3cc(C(=O)N(CCC(=O)O)c4ccc(F)c(Cl)c4)ccc3n2C2CC2)cc1
9.55 | CCn1c(CNc2ccc(C(=N)N)cc2)nc2cc(C(=O)N(CCC(=O)O)c3ccc(F)c(F)c3)ccc21
18.6 | CC(C)n1c(CNc2ccc(C(=N)N)cc2)nc2cc(C(=O)N(CCC(=O)O)c3ccc(F)c(Cl)c3)ccc21
24 | Cc1ccnc(N(CCC(=O)O)C(=O)c2ccc3c(c2)nc(CNc2ccc(C(=N)N)cc2F)n3C)c1
117 | CCCCCn1c(CNc2ccc(C(=N)N)cc2)nc2cc(C(=O)N(CCC(=O)O)c3ccc(F)c(Cl)c3)ccc21
5.37 | Cn1c(CNc2ccc(C(=N)N)cc2)nc2cc(C(=O)N(CCC(=O)O)c3cccc(F)c3)ccc21
26.9 | N=C(N)c1ccc(NCc2nc3cc(C(=O)N(CCC(=O)O)c4ccc(F)c(Cl)c4)ccc3n2C2CC2)c(F)c1
200 | CCn1c(CNc2ccc(C(=N)N)cc2)nc2cc(C(=O)N(CCC(=O)O)c3ccc(C(F)(F)F)cc3)ccc21
10.5 | Cn1c(CNc2ccc(C(=N)N)cc2)nc2cc(C(=O)N(CCC(=O)O)c3cc(F)cc(F)c3)ccc21
117 | CCn1c(CNc2ccc(C(=N)N)cc2)nc2cc(C(=O)N(CCC(=O)O)c3ccc(OC(F)(F)F)cc3)ccc21
3.55 | CCn1c(CNc2ccc(C(=N)N)cc2)nc2cc(C(=O)N(CCC(=O)O)c3ccccc3F)ccc21

Target: T1, Prothrombin
Assay: Inhibition of human thrombin preincubated for 10 mins using Ac-FVR-AMC as substrate by […] assay
Conditions: read-out: IC50

IC50 [nM] | SMILES
2.61 | CCCCCCOC(=O)NC(=N)c1ccc(NCc2nc3cc(C(=O)N(CCC(=O)OCC)c4ccccn4)ccc3n2C)cc1 [DABIGATRAN ETEXILATE]
3.95 | Cn1c(CNc2ccc(C(=N)N)cc2)nc2cc(C(=O)N(CCC(=O)O)c3ccc(F)c(F)c3)ccc21
4.96 | Cn1c(CNc2ccc(C(=N)N)cc2)nc2cc(C(=O)N(CCC(=O)O)c3ccccc3C(F)(F)F)ccc21

Same assay, conditions: read-out: pIC50 (converted)

IC50 [nM] | SMILES
2.63 | CCCCCCOC(=O)NC(=N)c1ccc(NCc2nc3cc(C(=O)N(CCC(=O)OCC)c4ccccn4)ccc3n2C)cc1 [DABIGATRAN ETEXILATE]
3.98 | Cn1c(CNc2ccc(C(=N)N)cc2)nc2cc(C(=O)N(CCC(=O)O)c3ccc(F)c(F)c3)ccc21
5.01 | Cn1c(CNc2ccc(C(=N)N)cc2)nc2cc(C(=O)N(CCC(=O)O)c3ccccc3C(F)(F)F)ccc21

Source: ChEMBL document CHEMBL3739403 (Bioorg Med Chem, 2016)
